According to patent US10336762B2 (priority 2017, dated 2019):
Read-outs that look alike come from different tables or passages of the source.

What was measured:
[1] = test system: TNFα; assay: cells; format: cell-based, human; details: Homo sapiens, Monocyte, read-out: EC50 TNF
Experimental: IRAK4 Monocyte TNFα Cell Based Assay Procedure:
The cell suspension was then plated at a density of 5,000 cells/well onto black 384 well Greiner clear bottom plates. Plates were pre-spotted with test compounds and serially diluted in DMSO where 200 nL/well were delivered using the Echo 550 acoustic liquid dispenser (Labcyte®) for a final DMSO concentration of 0.5%. Plated cells were treated with compound for 1 hour at 37° C. Cells were then stimulated with 50 pg/ml of LPS (Sigma) excluding outside columns of plate used for unstimulated cell control wells. Cells were incubated for an additional 4 hours at 37° C. Cells were then spun out of the media and 5 μl of sample were taken and analyzed for total TNFα content using the TR-FRET Human TNFα detection system (CisBio). This system utilizes two labeled antibodies (cryptate and XL665) that bind to two different epitopes of the TNFα molecule and produce FRET signal proportional to the concentration of TNFα in the sample. Detection antibodies are mixed 50:50 and 5 μL were dispensed into each well. Plates were covered with clear seals and incubated at room temp overnight. […] Percent of control was calculated as follows: % Control=100×(RatioSample−Ratio0% stimulation)/(Ratio100% Stimulation−Ratio0% Stimulation) where unstimulated cells (0% stimulation) were the negative control and stimulated cells (100% stimulation) were used as the positive control.

[2] = molecular target: IRAK4 enzyme (Homo sapiens (Human), UniProt Q9NWZ3); assay: biochemical; format: biochemical
[3] = LPS-stimulated human monocytes, TNFα by TR-FRET
[4] = IRAK4 enzyme, TR-FRET, 500 μM ATP
[5] = LPS-stimulated human monocytes, TNFα content
[6] = IRAK4 enzyme, TR-FRET (HTRF), 500 μM ATP

Chain of IRAK4 enzyme (Q9NWZ3 whole entry): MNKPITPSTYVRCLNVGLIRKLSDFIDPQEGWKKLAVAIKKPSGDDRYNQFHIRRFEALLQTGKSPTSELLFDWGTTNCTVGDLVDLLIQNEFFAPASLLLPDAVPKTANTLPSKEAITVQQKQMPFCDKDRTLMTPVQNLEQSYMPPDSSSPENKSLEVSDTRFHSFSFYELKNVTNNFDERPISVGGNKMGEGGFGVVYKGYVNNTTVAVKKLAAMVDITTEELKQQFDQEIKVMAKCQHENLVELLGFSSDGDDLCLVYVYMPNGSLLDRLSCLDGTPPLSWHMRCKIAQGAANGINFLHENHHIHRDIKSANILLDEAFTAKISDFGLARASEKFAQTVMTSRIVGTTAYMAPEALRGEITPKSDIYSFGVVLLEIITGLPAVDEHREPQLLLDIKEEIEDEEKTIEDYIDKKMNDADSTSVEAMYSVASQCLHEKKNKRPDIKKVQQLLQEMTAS

Row | SMILES | IC50 [2, 4] [nM] | EC50 [1, 5] [nM] | IC50 [2, 6] [nM] | also measured
1 | CC(C)(O)[C@H](F)CNC(=O)c1cnc(-c2ccc3cc(C#N)cnn23)cc1Nc1ccc(C2(N3CCOC3=O)CC2)cc1 [Example 876, (R)-6-(3-cyanopyrrolo[1,2-b]pyridazin-7-yl)-N-(2-fluoro-3-hydroxy-3-methylbutyl)-4-((4-(1-(2-oxooxazolidin-3-yl)cyclo-propyl)phenyl)amino) nicotinamide] | < 1 |  |  | EC50 [1, 3]: 24 nM
2 | CC(=O)NC12CC(Nc3cc(-c4ccc5cc(C#N)cnn45)ncc3C(=O)NCC#N)(C1)C2 [Example 496, 4-((3-acetamidobicyclo[1.1.1]pentan-1-yl)amino)-N-(cyanomethyl)-6-(3-cyanopyrrolo[1,2-b]pyridazin-7-yl)nicotinamide] |  | 42 | < 1 | 
3 | CC(C)(O)[C@H](F)CNC(=O)c1cnc(-c2ccc3cc(C#N)cnn23)cc1N[C@H]1C[C@H](S(C)(=O)=O)C1 [Example 443, 6-(3-cyanopyrrolo[1,2-b]pyridazin-7-yl)-N-((R)-2-fluoro-3-hydroxy-3-methylbutyl)-4-(((1r,3R)-3-(methylsulfonyl)cyclobutyl)amino)nicotinamide] |  | 110 | 1 | 
4 | CC(C)(O)[C@H](F)CNC(=O)c1cnc(-c2ccc3cc(C#N)cnn23)cc1NC1CS(=O)(=O)C1 [Example 77, (R)-6-(3-cyanopyrrolo[1,2-b]pyridazin-7-yl)-4-((1,1-dioxidothietan-3-yl)amino)-N-(2-fluoro-3-hydroxy-3-methylbutyl)nicotinamide] | 2 | 352 |  | 
5 | CC(C)(O)[C@H](F)CNC(=O)c1cnc(-c2ccc3cc(C#N)cnn23)cc1Nc1cn[nH]c1 [Example 70, (R)-4-((1H-pyrazol-4-yl)amino)-6-(3-cyano-pyrrolo[1,2-b]pyridazin-7-yl)-N-(2-fluoro-3-hydroxy-3-methylbutyl)nicotinamide] | < 1 | 47 |  | 
6 | CC(C)(O)[C@H](F)CNC(=O)c1cnc(-c2ccc3cc(C#N)cnn23)cc1Nc1ccn2nccc2c1 [Example 975, (R)-6-(3-cyanopyrrolo[1,2-b]pyridazin-7-yl)-N-(2-fluoro-3-hydroxy-3-methyl-butyl)-4-(pyrazolo[1,5-a]pyridin-5-ylamino) nicotinamide] | < 1 |  |  | EC50 [1, 3]: 67 nM
7 | CC(C)Nc1cc(-c2ccc3cc(-c4nnn[nH]4)cnn23)ncc1C(=O)NC[C@@H](F)C(C)(C)O [Example 17, (R)-6-(3-(1H-tetrazol-5-yl)pyrrolo[1,2-b]pyridazin-7-yl)-N-(2-fluoro-3-hydroxy-3-methylbutyl)-4-(isopropylamino)nicotinamide] | 24 | 5200 |  | 
8 | CC(C)(O)[C@H](F)CNC(=O)c1cnc(-c2ccc3cc(C#N)cnn23)cc1N[C@H]1C[C@H](Cn2cc(C3CC3)nn2)C1 [Example 704, 6-(3-cyanopyrrolo[1,2-b]pyridazin-7-yl)-4-(((1r,3R)-3-((4-cyclopropyl-1H-1,2,3-triazol-1-yl)methyl)cyclobutyl)amino)-N—((R)-2-fluoro-3-hydroxy-3-methylbutyl)nicotinamide] |  | 69 | 1 | 
9 | CC1(C(=O)N[C@H]2CC[C@H](Nc3cc(-c4ccc5cc(C#N)cnn45)ncc3C(=O)NC[C@@H](F)C(C)(C)O)CC2)COC1 [Example 282, 6-(3-cyanopyrrolo[1,2-b]pyridazin-7-yl)-N-((R)-2-fluoro-3-hydroxy-3-methylbutyl)-4-(((1r,4R)-4-(3-methyloxetane-3-carboxamido)cyclohexyl)amino)nicotinamide] |  |  |  | EC50 [1]: 364 nM; IC50 [2]: 2 nM
10 | CC(C)(O)[C@H](F)CNC(=O)c1cnc(-c2ccc3cc(C#N)cnn23)cc1Nc1ccc(Cn2ccccc2=O)cc1 [Example 719, (R)-6-(3-cyanopyrrolo[1,2-b]pyridazin-7-yl)-N-(2-fluoro-3-hydroxy-3-methylbutyl)-4-((4-((2-oxopyridin-1(2H)-yl)methyl)phenyl)amino)nicotinamide] |  | 11 | < 1 | 
11 | CC(C)Nc1cc(-c2ccc3cc(C#N)cnn23)ncc1C(=O)NC1CC2(COC2)C1 [Example 96, 6-(3-cyanopyrrolo[1,2-b]pyridazin-7-yl)-4-(isopropyl-amino)-N-(2-oxaspiro[3.3]heptan-6-yl) nicotinamide] | 2 | 79 |  | 
12 | CC(C)(C)OC(=O)NC12CCC(Nc3cc(-c4ccc5cc(C#N)cnn45)ncc3C(=O)NC[C@@H](F)C(C)(C)O)(CC1)CC2 [Example 304, (R)-tert-butyl (4-((2-(3-cyanopyrrolo[1,2-b]pyridazin-7-yl)-5-((2-fluoro-3-hydroxy-3-methylbutyl)carbamoyl)pyridin-4yl)amino)bicyclo[2.2.2]octan-1-yl)carbamate] | 4 | 677 |  | 
13 | COc1ccc(Nc2cc(-c3ccc4cc(C#N)cnn34)ncc2C(=O)NC[C@@H](F)C(C)(C)O)cc1 [Example 609, (R)-6-(3-cyanopyrrolo[1,2-b]pyridazin-7-yl)-N-(2-fluoro-3-hydroxy-3-methylbutyl)-4-((4-methoxyphenyl)amino) nicotinamide] |  | 35 | < 1 | 
14 | CC(C)(O)[C@H](F)CNC(=O)c1cnc(-c2ccc3cc(C#N)cnn23)cc1NC12CCC(C(=O)NC34CC(C3)C4)(CC1)CC2 [Example 410, (R)-4-((4-(bicyclo[1.1.1]pentan-1-ylcarbamoyl)bicyclo[2.2.2]octan-1-yl)amino)-6-(3-cyano-pyrrolo[1,2-b]pyridazin-7-yl)-N-(2-fluoro-3-hydroxy-3-methylbutyl) nicotinamide] |  | 50 | 2 | 
15 | CC(C)(O)[C@H](F)CNC(=O)c1cnc(-c2ccc3cc(C#N)cnn23)cc1NC12CCC(NC(=O)C3CC3)(CC1)CC2 [Example 281, (R)-6-(3-cyanopyrrolo[1,2-b]pyridazin-7-yl)-4-((4-(cyclopropanecarboxamido)bicyclo[2.2.2]octan-1-yl)amino)-N-(2-fluoro-3-hydroxy-3-methylbutyl) nicotinamide] | 1 | 37 |  | 
16 | N#Cc1cnn2c(-c3cc(NC45CCC(O)(CC4)CC5)c(C(=O)NCC4(C(F)F)COC4)cn3)ccc2c1 [Example 710, 6-(3-cyanopyrrolo[1,2-b]pyridazin-7-yl)-N-((3-(difluoromethyl)oxetan-3-yl)methyl)-4-((4-hydroxybicyclo[2.2.2]octan-1-yl)amino) nicotinamide] |  | 183 | 4 | 
17 | COC(=O)N1CCC(n2cc(Nc3cc(-c4ccc5cc(C#N)cnn45)ncc3C(=O)NC[C@@H](F)C(C)(C)O)cn2)CC1 [Example 235, (R)-methyl 4-(4-((2-(3-cyanopyrrolo[1,2-b]pyridazin-7-yl)-5-((2-fluoro-3-hydroxy-3-methylbutyl)carbamoyl)pyridin-4-yl)amino)-1H-pyrazol-1-yl)piperidine-1-carboxylate] | 2 | 166 |  | 
18 | CC(C)(O)[C@H](F)CNC(=O)c1cnc(-c2ccc3cc(C#N)cnn23)cc1Nc1ccc(-n2nccn2)nc1 [Example 778, (R)-4-((6-(2H-1,2,3-triazol-2-yl)pyridin-3-yl)amino)-6-(3-cyanopyrrolo[1,2-b]pyridazin-7-yl)-N-(2-fluoro-3-hydroxy-3-methyl-butyl)nicotinamide] |  | 51 | < 1 | 
19 | CCC(=O)N[C@H]1CC[C@H](Nc2cc(-c3ccc4cc(C#N)cnn34)ncc2C(=O)NC[C@@H](F)C(C)(C)O)CC1 [Example 299, 6-(3-cyanopyrrolo[1,2-b]pyridazin-7-yl)-N-((R)-2-fluoro-3-hydroxy-3-methyl-butyl)-4-(((1r,4R)-4-propionamidocyclohexyl)amino)nicotinamide] | 1 | 128 |  | 
20 | CC(=O)OC12CCC(Nc3cc(-c4ccc5cc(C#N)cnn45)ncc3C(=O)NC[C@@H](F)C(C)(C)OC(C)=O)(CC1)CC2 [Example 417, 4-((5-(((R)-3-acetoxy-2-fluoro-3-methylbutyl)carbamoyl)-2-(3-cyanopyrrolo[1,2-b]pyridazin-7-yl)pyridin-4-yl)amino)bicyclo[2.2.2]octan-1-yl acetate] |  | 151 | 5 | 
21 | COC(=O)NC(C)(CCNC(=O)c1cnc(-c2ccc3cc(C#N)cnn23)cc1NC(C)C)C(F)F (centres unmarked) [Example 553, methyl (4-(6-(3-cyano-pyrrolo[1,2-b]pyridazin-7-yl)-4-(isopropylamino)nicotinamido)-1,1-difluoro-2-methylbutan-2-yl)carbamate] |  | 183 | 2 | 
22 | COc1cc(Nc2cc(-c3ccc4cc(C#N)cnn34)ncc2C(=O)NC[C@@H](F)C(C)(C)O)cnc1OC [Example 853, (R)-6-(3-cyanopyrrolo[1,2-b]pyridazin-7-yl)-4-((5,6-dimethoxypyridin-3-yl)amino)-N-(2-fluoro-3-hydroxy-3-methylbutyl) nicotinamide] | 14 |  |  | EC50 [1, 3]: 127 nM
23 | CN1C(=O)C(C)(C)c2ccc(Nc3cc(-c4ccc5cc(C#N)cnn45)ncc3C(=O)NC[C@@H](F)C(C)(C)O)cc21 [Example 652, (R)-6-(3-cyanopyrrolo[1,2-b]pyridazin-7-yl)-N-(2-fluoro-3-hydroxy-3-methylbutyl)-4-((1,3,3-trimethyl-2-oxoindolin-6-yl)amino)nicotinamide] |  | 188 | 2 | 
24 | CC(C)(O)[C@H](F)CNC(=O)c1cnc(-c2ccc3cc(C#N)cnn23)cc1NC1Cc2ccncc2C1 (stereo partly drawn) [Example 672, 6-(3-cyanopyrrolo[1,2-b]pyridazin-7-yl)-4-((6,7-dihydro-5H-cyclopenta[c]pyridin-6-yl)amino)-N-((R)-2-fluoro-3-hydroxy-3-methylbutyl)nicotinamide] |  | 66 | < 1 | 
25 | COc1nccc(Nc2cc(-c3ccc4cc(C#N)cnn34)ncc2C(=O)NC[C@@H](F)C(C)(C)O)n1 [Example 844, (R)-6-(3-cyanopyrrolo[1,2-b]pyridazin-7-yl)-N-(2-fluoro-3-hydroxy-3-methylbutyl)-4-((2-methoxypyrimidin-4-yl)amino)nicotinamide] | 1 |  |  | EC50 [1, 3]: 70 nM
